Data set [1] deals with CYP3A4 liver enzyme (Homo sapiens, UniProt P08684). Particulars: Zytiga Full Prescribing Information, Section 7.2; cited from earlier work.
For data set [2] the following is noted: product insert (Zytiga Full Prescribing Information, Section 11); cited from earlier work.
The conditions of data set [3]: cited from earlier work.
The nature of data set [4]: Solubility in water (description). In kind it is physicochemical. Particulars: ABOA, white to off-white solid.

Molecules are shown by their SMILES. Read-outs that look alike come from different tables or passages of the source.

CYP3A4 liver enzyme, sequence (P08684 whole entry): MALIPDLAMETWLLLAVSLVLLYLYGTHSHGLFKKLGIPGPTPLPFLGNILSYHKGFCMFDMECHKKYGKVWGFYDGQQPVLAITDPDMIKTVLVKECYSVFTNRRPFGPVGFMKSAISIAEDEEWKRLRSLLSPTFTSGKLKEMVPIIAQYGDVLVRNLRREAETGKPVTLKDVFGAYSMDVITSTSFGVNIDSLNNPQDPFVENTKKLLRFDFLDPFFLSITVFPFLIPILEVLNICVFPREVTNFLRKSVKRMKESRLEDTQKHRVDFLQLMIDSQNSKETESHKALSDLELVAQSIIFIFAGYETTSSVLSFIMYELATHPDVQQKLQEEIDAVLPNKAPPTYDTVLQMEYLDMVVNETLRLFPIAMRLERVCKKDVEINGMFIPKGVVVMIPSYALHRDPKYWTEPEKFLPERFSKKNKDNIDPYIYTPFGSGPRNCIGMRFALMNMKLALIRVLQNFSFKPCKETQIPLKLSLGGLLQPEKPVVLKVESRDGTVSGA

`CC(=O)O[C@H]1CC[C@@]2(C)C(=CC[C@@H]3[C@@H]2CC[C@]2(C)C(c4cccnc4)=CC[C@@H]32)C1` [abiraterone acetate]: the CYP3A4 substrate result in data set [1] is given as “substrate of the CYP3A4 liver enzyme”. The solubility in water entry in data set [2] is “practically insoluble in water”. In addition, the food-effect entry in data set [3] (depending on fat content of the meal) was “five- to ten-fold”. Also, the administered drug excreted in data set [3] (oral, low bioavailability from poor absorption) is reported as 77%.
For the molecule `C[C@]12CC[C@H](OC(=O)C(=O)O)CC1=CC[C@@H]1[C@@H]2CC[C@]2(C)C(c3cccnc3)=CC[C@@H]12` [ABOA, 2-(((3S,8R,9S,10R,13S,14S)-10,13-dimethyl-17-(pyridin-3-yl)-2,3,4,7,8,9,10,11,12,13,14,15-dodecahydro-1H-cyclopenta[a]phenanthren-3-yl)oxy)-2-oxoacetic acid], the solubility in water result in data set [4] is “practically insoluble in water”.

The record behind these values is patent publication US10717762B2, “Abiraterone derivative and formulations thereof” (Zhuhai Beihai Biotech Co., Ltd., priority 2016, dated 2020).
